# Test results taken from PubChem BioAssay (NCI).
#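 Compound exposure: 48 hours, 5 concentrations, 96-well plates. GI50 is the concentration that inhibits growth by half. Definition used: TGI = concentration required for complete inhibition of growth.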
# Legend:
# Experiment in all cases: NCI anticancer screen, dose series, 48 h
# [1] = test system: MDA-MB-231 breast
# [2] = test system: DU-145 prostate
# [3] = test system: T-47D breast
# [4] = test system: SNB-78 CNS
# [5] = test system: DLD-1 colon
# [6] = test system: KM20L2 colon
# [7] = test system: LXFL 529 NSCLC
# [8] = test system: M19-MEL melanoma
# [9] = test system: DMS 273 small cell lung
# [10] = test system: DMS 114 small cell lung
SMILES,GI50 [1],TGI [1],GI50 [2],TGI [2],GI50 [3],TGI [3],TGI [4],TGI [5],TGI [6],TGI [7],TGI [8],TGI [9],TGI [10]
O=C1c2cccnc2-c2nc(-c3ccccc3)cc3c2c1nc1ccccc13,4.33 µM,> 100 µM,13.6 µM,30.2 µM,5.35 µM,44.3 µM,–,–,–,–,–,–,–
Nc1ncn([C@@H]2C=C(CO)C(O)C2O)c(=O)n1 (stereo partly drawn),–,–,–,–,–,–,> 100 µM,> 100 µM,> 100 µM,> 100 µM,> 100 µM,> 100 µM,–
Cc1cc2c(C)nn(Cc3ccc(Cl)cc3Cl)c2c(C#N)c1C,–,–,–,–,–,–,> 100 µM,> 100 µM,> 100 µM,> 100 µM,> 100 µM,> 100 µM,–
CC[C@]12C=CCN3CC[C@]4(C(=C(C(=O)OC)C1)Nc1ccccc14)[C@@H]32,3.19 µM,13.3 µM,3.81 µM,14.5 µM,2.82 µM,15.9 µM,–,–,–,–,–,–,–
c1ccc(COc2ccc(Nc3ncnc4ccc(-c5ccco5)cc34)cc2)cc1,5.49 µM,13.7 µM,5.74 µM,24.6 µM,4.09 µM,16.8 µM,–,–,–,–,–,–,–
COc1ccc2c(c1)C(=O)/C(=C/c1ccc(OCC(=O)c3ccc(Cl)cc3)cc1)O2,17 µM,89.7 µM,16.4 µM,29.9 µM,10.5 µM,35.7 µM,–,–,–,–,–,–,–
Cn1cc(-c2csc(-c3cn(C)c4ncccc34)n2)c2ccccc21,2.82 µM,37.8 µM,0.436 µM,23.5 µM,–,–,–,–,–,–,–,–,–
CC(=O)OCC1OC(n2cnc3c(I)nc(I)nc32)C(OC(C)=O)C1OC(C)=O (stereo not drawn),–,–,–,–,–,–,–,24.2 µM,32.7 µM,26.1 µM,12.2 µM,20.2 µM,13.1 µM
CC(=O)C(CN1CCOCC1)C(c1ccccc1)c1c(O)c2ccccc2oc1=O (stereo not drawn),–,> 100 µM,–,> 100 µM,–,> 100 µM,–,–,–,–,–,–,–
Cn1cc(-c2nonc2-c2cn(C)c3ccc(Br)cc23)c2ccccc21,3.67 µM,> 100 µM,4.09 µM,> 100 µM,–,–,–,–,–,–,–,–,–
Cn1cccc1C1CC(=O)N(CCC[Se]C#N)C1=O (stereo not drawn),–,–,1.81 µM,3.78 µM,2.78 µM,12.8 µM,–,–,–,–,–,–,–
S=c1nc(/C=C/c2ccc(Cl)c(Cl)c2)[nH][nH]1,79 µM,> 100 µM,> 100 µM,> 100 µM,77.1 µM,> 100 µM,–,> 100 µM,> 100 µM,–,–,> 100 µM,0.12 µM
CNS(=O)(=O)NN(C)S(=O)(=O)c1ccc(C)cc1,–,–,–,–,–,–,–,> 100 µM,> 100 µM,–,> 100 µM,–,> 100 µM
COC(=O)CC(CC(=O)C(=O)OC)C(=O)OC (stereo not drawn),–,–,–,–,–,–,> 100 µM,> 100 µM,> 100 µM,> 100 µM,–,–,–
C#CCSc1nnnn1-c1ccc(Br)c(C)c1,35.8 µM,> 100 µM,16.6 µM,47.5 µM,21 µM,> 100 µM,–,–,–,–,–,–,–
CN(C)c1ccc(N=C(C#N)c2nc(N)nc(N3CCOCC3)n2)cc1,20.7 µM,50.5 µM,49.8 µM,> 100 µM,> 100 µM,> 100 µM,–,–,–,–,–,–,–
O=C(/C=C/c1cccnc1)/C=C/c1cccnc1,2.05 µM,5.8 µM,2.57 µM,6.45 µM,2.14 µM,6.87 µM,–,–,–,–,–,–,–
COc1cccc(C2C3=C(COC3=O)N(CCO)c3cc4c(cc32)CCC4)c1 (stereo not drawn),0.142 µM,1.07 µM,0.0884 µM,0.321 µM,0.0832 µM,36.6 µM,–,–,–,–,–,–,–
O=C1/C(=C\c2ccccc2)CN(C(=O)c2ccccc2F)C/C1=C\c1ccccc1,2 µM,4.06 µM,2.73 µM,6.41 µM,2.57 µM,8.78 µM,–,–,–,–,–,–,–
COc1ccc(C=O)c(N(C)C(=O)C(C)(C)C)c1,–,–,–,–,–,–,> 100 µM,–,> 100 µM,–,> 100 µM,> 100 µM,> 100 µM
COc1cc2nc(-c3ccc(Cl)cc3)cc(OCCCN3CCC(O)CC3)c2cc1OC,0.665 µM,3.52 µM,2.78 µM,25.9 µM,2.26 µM,12 µM,–,–,–,–,–,–,–
Oc1ccc(-c2nc(-c3ccc(F)cc3)c(-c3ccncc3)[nH]2)cc1,11.2 µM,> 100 µM,15.4 µM,> 100 µM,8.75 µM,63 µM,–,–,–,–,–,–,–
NC(=NCc1ccccc1)N/N=C\c1ccnc2ccccc12,–,28.2 µM,–,32.3 µM,–,5.87 µM,–,–,–,–,–,–,–
CC(=O)NNc1nc(C)c(C(/C=C/c2ccc3c(c2)OCO3)=N/NC(=O)c2ccncc2)s1,–,> 100 µM,–,–,–,> 100 µM,–,–,–,–,–,–,–
COC(=O)Oc1nn(C(=O)OC)c(=O)c2ccccc12 (tested in a mixture with another compound),–,> 100 µM,–,> 100 µM,–,> 100 µM,–,–,–,–,–,–,–
COC(=O)C12C3C=CC(O3)C1C1C=CC2O1 (stereo not drawn),–,–,–,–,–,–,–,> 100 µM,> 100 µM,> 100 µM,> 100 µM,> 100 µM,–
CC1OC(OC2C(OC3CCC4(C)C(CCC5(C)C4CC=C4C6CC(C)(C)CCC6(CO)C(O)CC45C)C3(C)C)OC(C(=O)O)C(OC3OC(COC4OC(CO)C(O)C(O)C4O)C(O)C(O)C3O)C2O)C(O)C(O)C1O (stereo not drawn),10.8 µM,21.8 µM,13.4 µM,25.1 µM,12.3 µM,27.8 µM,–,–,–,–,–,–,–
COc1cc(-c2cn(-c3ccc(Cl)cc3)c(=O)n2-c2ccccc2)cc(OC)c1OC,32.9 µM,> 100 µM,> 100 µM,> 100 µM,21.7 µM,> 100 µM,–,–,–,–,–,–,–
CC1=C(C(=O)Nc2cc(F)c(F)cc2F)C(c2cccc([N+](=O)[O-])c2)C(C(=O)Nc2ccccc2C(F)(F)F)=C(C)N1 (stereo not drawn),–,–,–,–,–,–,59.2 µM,94.7 µM,78.4 µM,53.1 µM,91.5 µM,–,57 µM
O=[N+]([O-])c1ccc(N=Nc2c(O)[nH]c3ccc(Br)cc23)c([N+](=O)[O-])c1,–,–,–,–,–,–,> 100 µM,20.4 µM,13.4 µM,13.9 µM,9.91 µM,–,–
